Laboratory results from US20240083861A1, “HSD17B13 INHIBITORS AND USES THEREOF” (FL2022-001, Inc., priority 2020, published 2024).

target: T1, Recombinant human HSD17B13 enzyme (Homo sapiens, UniProt Q7Z5P4); assay: HSD17b13 NAD(P)H-Glo biochemical assay; conditions: 50 uM estradiol, 1 mM NAD+, NAD(P)H-Glo luminescence; read-out: HSD17β13 IC50
T1 sequence (Q7Z5P4 20-300): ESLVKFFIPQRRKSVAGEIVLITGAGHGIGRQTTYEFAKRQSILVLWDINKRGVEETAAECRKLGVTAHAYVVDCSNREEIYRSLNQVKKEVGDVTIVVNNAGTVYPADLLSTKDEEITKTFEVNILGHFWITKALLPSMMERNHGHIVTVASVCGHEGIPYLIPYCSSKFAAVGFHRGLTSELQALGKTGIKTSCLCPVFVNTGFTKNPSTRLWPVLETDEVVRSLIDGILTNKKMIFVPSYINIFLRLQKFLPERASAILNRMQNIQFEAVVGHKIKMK
Method in brief: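 Recombinant human HSD17B13 in 20 mM Tris pH7.4 with 0.002% Tween-20 and 0.02% BSA was preincubated with inhibitor for 20 minutes at RT. The reaction ran 3 hours at 37° C with 50 uM estradiol and 1 mM NAD+ (final). NADH formed was detected by NAD(P)H-Glo luminescence after 1 hour at RT.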

| IC50 [nM] | SMILES |
| --- | --- |
| < 100 | CCOC1CCN(c2ncc3c(-c4cc(C(F)(F)F)c(F)c(O)c4F)nn(C)c3n2)CC1 [Compound 18.70, 3-(6-(4-Ethoxypiperidin-1-y1)-1-methyl-1H-pyrazolo[3,4-d]pyrimidin-3-y1)-2,6-difluoro-5-(trifluoromethyl)phenol] |
| 100 to 1000 | CN1CCN(c2ncc3c(-c4cc(C(F)(F)F)c(F)c(O)c4F)nn(C)c3n2)CC1 [Compound 18.72, 2,6-Difluoro-3-(1-methyl-6-(4-methylpiperazin-1-yl)-1H-pyrazolo[3,4-d]pyrimidin-3-y1)-5-(trifluoromethyl)phenol] |
| 100 to 1000 | CC(C)N1CCN(c2ncc3c(-c4cc(C(F)(F)F)c(F)c(O)c4F)nn(C)c3n2)CC1 [Compound 18.73, 2,6-Difluoro-3-(6-(4-isopropylpiperazin-1-yl)-1-methyl-1H-pyrazolo[3,4-d]pyrimidin-3-yl)-5-(trifluoromethyl)phenol] |
| 100 to 1000 | Cn1nc(-c2cc(C(F)(F)F)c(F)c(O)c2F)c2cnc(N3CC4CC(C3)N4S(C)(=O)=O)nc21 [Compound 18.74, 2,6-Difluoro-3-(1-methyl-6-(6-(methylsulfony1)-3,6-diazabicyclo[3.1.1]heptan-3-yl)-1H-pyrazolo[3,4-d]pyrimidin-3-y1)-5-(trifluoromethyl)phenol] |
| 100 to 1000 | Cn1nc(-c2cc(C(F)(F)F)c(F)c(O)c2F)c2cnc(N3CCNCC3)nc21 [Compound 18.75, 2,6-Difluoro-3-(1-methyl-6-(piperazin-1-y1)-1H-pyrazolo[3,4-d]pyrimidin-3-y1)-5-(trifluoromethyl)phenol] |
| < 100 | Cn1nc(-c2cc(C(F)(F)F)c(F)c(O)c2F)c2cnc(N3CCCC(c4ncccn4)C3)nc21 (stereo not shown) [Compound 18.76, 2,6-Difluoro-3-(1-methyl-6-(3-(pyrimidin-2-y1)piperidin-1-yl)-1H-pyrazolo[3,4-d]pyrimidin-3-y1)-5-(trifluoromethyl)phenol] |
| 100 to 1000 | Cn1nc(-c2cc(C(F)(F)F)c(F)c(O)c2F)c2cnc(N3CCOC(c4ncc[nH]4)C3)nc21 (stereo not shown) [Compound 18.79, 3-(6-(2-(1H-Imidazol-2-yl)morpholino)-1-methyl-1H-pyrazolo[3,4-d]pyrimidin-3-y1)-2,6-difluoro-5-(trifluoromethyl)phenol] |
| < 100 | Cn1nc(-c2cc(C(F)(F)F)c(F)c(O)c2F)c2cnc(N3CCOC(c4nccs4)C3)nc21 (stereo not shown) [Compound 18.80, 2,6-Difluoro-3-(1-methyl-6-(2-(thiazol-2-yl)morpholino)-1H-pyrazolo[3,4-d]pyrimidin-3-y1)-5-(trifluoromethyl)phenol] |
| < 100 | Cn1nc(-c2cc(C(F)(F)F)c(F)c(O)c2F)c2cnc(N3CCOC(c4ncon4)C3)nc21 (stereo not shown) [Compound 18.81, 3-(6-(2-(1,2,4-Oxadiazol-3-yl)morpholino)-1-methyl-1H-pyrazolo[3,4-d]pyrimidin-3-y1)-2,6-difluoro-5-(trifluoromethyl)phenol] |
| < 100 | Cn1nc(-c2cc(C(F)(F)F)c(F)c(O)c2F)c2cnc(N3CCC(O)(c4cccnc4)CC3)nc21 [Compound 18.88, 1-(3-(2,4-Difluoro-3-hydroxy-5-(trifluoromethyl)phenyl)-1-methyl-1H-pyrazolo[3,4-d]pyrimidin-6-yl)-4-(pyridin-3-yl)piperidin-4-ol] |
| < 100 | CN1CC2(CCN(c3ncc4c(-c5cc(C(F)(F)F)c(F)c(O)c5F)nn(C)c4n3)CC2)OC1=O [Compound 18.89, 8-(3-(2,4-Difluoro-3-hydroxy-5-(trifluoromethyl)phenyl)-1-methyl-1H-pyrazolo[3,4-d]pyrimidin-6-yl)-3-methyl-1-oxa-3,8-diazaspiro[4.5]decan-2-one] |
| < 100 | Cn1nc(-c2cc(C(F)(F)F)c(F)c(O)c2F)c2cnc(N3CCC(O)(CO)CC3)nc21 [Compound 18.91, 1-(3-(2,4-Difluoro-3-hydroxy-5-(trifluoromethyl)phenyl)-1-methyl-1H-pyrazolo[3,4-d]pyrimidin-6-yl)-4-(hydroxymethyl)piperidin-4-ol] |

Further lines, the compound ahead of its results:

| SMILES | IC50 [nM] |
| --- | --- |
| Cn1nc(-c2cc(C(F)(F)F)c(F)c(O)c2F)c2cnc(N3CCN(S(C)(=O)=O)C(C)(C)C3)nc21 [Compound 18.64, 3-(6-(3,3-Dimethyl-4-(methylsulfonyl)piperazin-1-y1)-1-methyl-1H-pyrazolo[3,4-d]pyrimidin-3-y1)-2,6-difluoro-5-(trifluoromethyl)phenol] | < 100 |
| Cn1nc(-c2cc(C(F)(F)F)c(F)c(O)c2F)c2cnc(N3CCC(C)(O)CC3)nc21 [Compound 18.65, 1-(3-(2,4-Difluoro-3-hydroxy-5-(trifluoromethyl)phenyl)-1-methyl-1H-pyrazolo[3,4-d]pyrimidin-6-yl)-4-methylpiperidin-4-ol] | < 100 |
| CCC1(O)CCN(c2ncc3c(-c4cc(C(F)(F)F)c(F)c(O)c4F)nn(C)c3n2)CC1 [Compound 18.66, 1-(3-(2,4-Difluoro-3-hydroxy-5-(trifluoromethyl)phenyl)-1-methyl-1H-pyrazolo[3,4-d]pyrimidin-6-yl)-4-ethylpiperidin-4-ol] | < 100 |
| CC(C)C1(O)CCN(c2ncc3c(-c4cc(C(F)(F)F)c(F)c(O)c4F)nn(C)c3n2)CC1 [Compound 18.67, 1-(3-(2,4-Difluoro-3-hydroxy-5-(trifluoromethyl)phenyl)-1-methyl-1H-pyrazolo[3,4-d]pyrimidin-6-yl)-4-isopropylpiperidin-4-ol] | < 100 |
| CCOC1(C)CCN(c2ncc3c(-c4cc(C(F)(F)F)c(F)c(O)c4F)nn(C)c3n2)CC1 [Compound 18.68, 3-(6-(4-Ethoxy-4-methylpiperidin-1-y1)-1-methyl-1H-pyrazolo[3,4-d]pyrimidin-3-y1)-2,6-difluoro-5-(trifluoromethyl)phenol] | < 100 |
| CC(C)OC1CCN(c2ncc3c(-c4cc(C(F)(F)F)c(F)c(O)c4F)nn(C)c3n2)CC1 [Compound 18.69, 2,6-Difluoro-3-(6-(4-isopropoxypiperidin-1-yl)-1-methyl-1H-pyrazolo[3,4-d]pyrimidin-3-y1)-5-(trifluoromethyl)phenol] | < 100 |
| Cn1nc(-c2cc(C(F)(F)F)c(F)c(O)c2F)c2cnc(N3CCCC(c4ccncn4)C3)nc21 (stereo not shown) [Compound 18.71, 2,6-Difluoro-3-(1-methyl-6-(3-(pyrimidin-4-y1)piperidin-1-yl)-1H-pyrazolo[3,4-d]pyrimidin-3-y1)-5-(trifluoromethyl)phenol] | < 100 |
| COC1CCN(c2ncc3c(-c4cc(C(F)(F)F)c(F)c(O)c4F)nn(C)c3n2)CC1 [Compound 18.77, 2,6-Difluoro-3-(6-(4-methoxypiperidin-1-y1)-1-methyl-1H-pyrazolo[3,4-d]pyrimidin-3-yl)-5-(trifluoromethyl)phenol] | < 100 |
| Cn1nc(-c2cc(C(F)(F)F)c(F)c(O)c2F)c2cnc(N3CCOC(c4nnc[nH]4)C3)nc21 (stereo not shown) [Compound 18.78, 3-(6-(2-(4H-1,2,4-Triazol-3-yl)morpholino)-1-methyl-1H-pyrazolo[3,4-d]pyrimidin-3-y1)-2,6-difluoro-5-(trifluoromethyl)phenol] | 100 to 1000 |
| Cn1nc(-c2cc(C(F)(F)F)c(F)c(O)c2F)c2cnc(N3CCOC(c4cc[nH]n4)C3)nc21 (stereo not shown) [Compound 18.82, 3-(6-(2-(1H-Pyrazol-3-yl)morpholino)-1-methyl-1H-pyrazolo[3,4-d]pyrimidin-3-y1)-2,6-difluoro-5-(trifluoromethyl)phenol] | < 100 |
| Cn1nc(-c2cc(C(F)(F)F)c(F)c(O)c2F)c2cnc(N3CCN(S(C)(=O)=O)C4(CCCC4)C3)nc21 [Compound 18.83, 2,6-Difluoro-3-(1-methyl-6-(6-(methylsulfonyl)-6,9-diazaspiro[4.5]decan-9-yl)-1H-pyrazolo[3,4-d]pyrimidin-3-y1)-5-(trifluoromethyl)phenol] | < 100 |
| Cn1nc(-c2cc(C(F)(F)F)c(F)c(O)c2F)c2cnc(N3CCN(S(C)(=O)=O)C4(CCCCC4)C3)nc21 [Compound 18.84, 2,6-Difluoro-3-(1-methyl-6-(1-(methylsulfony1)-1,4-diazaspiro[5.5]undecan-4-yl)-1H-pyrazolo[3,4-d]pyrimidin-3-y1)-5-(trifluoromethyl)phenol] | < 100 |
| Cn1nc(-c2cc(C(F)(F)F)c(F)c(O)c2F)c2cnc(N3CCN(S(C)(=O)=O)C4(CCOCC4)C3)nc21 [Compound 18.85, 2,6-Difluoro-3-(1-methyl-6-(1-(methylsulfony1)-9-oxa-1,4-diazaspiro[5.5]undecan-4-y1)-1H-pyrazolo[3,4-d]pyrimidin-3-y1)-5-(trifluoromethyl)phenol] | < 100 |
| Cn1nc(-c2cc(C(F)(F)F)c(F)c(O)c2F)c2cnc(N3CCO[C@@H](c4ccccc4)C3)nc21 [Compound 18.86, (S)-2,6-Difluoro-3-(1-methyl-6-(2-phenylmorpholino)-1H-pyrazolo[3,4-d]pyrimidin-3-y1)-5-(trifluoromethyl)phenol] | < 100 |
| Cn1nc(-c2cc(C(F)(F)F)c(F)c(O)c2F)c2cnc(N3CCO[C@H](c4ccccc4)C3)nc21 [Compound 18.87, (R)-2,6-Difluoro-3-(1-methyl-6-(2-phenylmorpholino)-1H-pyrazolo[3,4-d]pyrimidin-3-y1)-5-(trifluoromethyl)phenol] | < 100 |
| Cn1nc(-c2cc(C(F)(F)F)c(F)c(O)c2F)c2cnc(N3CCCC(c4cncnc4)C3)nc21 (stereo not shown) [Compound 18.90, 2,6-Difluoro-3-(1-methyl-6-(3-(pyrimidin-5-y1)piperidin-1-yl)-1H-pyrazolo[3,4-d]pyrimidin-3-y1)-5-(trifluoromethyl)phenol] | < 100 |
